ChEMBL document CHEMBL3580659, “One-pot multicomponent synthesis of indole incorporated thiazolylcoumarins and their antibacterial, anticancer and DNA cleavage studies” (2015)
Activity calls are given as the source filed them. No cut-off for these calls is given here.

Columns and labels:
M14 = test: Cytotoxicity against human M14 cells assessed as cell growth level at 100 uM after 48 hrs by sulforhodamine B assay; format: functional
CAKI-1 [1] = test: Cytotoxicity against human CAKI-1 cells assessed as cell growth level at 100 uM after 48 hrs by sulforhodamine B assay; format: functional
PC-3 = test: Cytotoxicity against human PC3 cells assessed as cell growth level at 100 uM after 48 hrs by sulforhodamine B assay; format: functional
MCF7 = test: Cytotoxicity against human MCF7 cells assessed as cell growth level at 100 uM after 48 hrs by sulforhodamine B assay; format: functional
NCI-H322M [2] = test: Cytotoxicity against human NCI-H322M cells assessed as cell growth level at 10 nM after 48 hrs by sulforhodamine B assay; format: functional
NCI-H460 = test: Cytotoxicity against human NCI-H460 cells assessed as cell growth level at 10 nM after 48 hrs by sulforhodamine B assay; format: functional
NCI-H522 = test: Cytotoxicity against human NCI-H522 cells assessed as cell growth level at 10 nM after 48 hrs by sulforhodamine B assay; format: functional
HCC 2998 = test: Cytotoxicity against human HCC2998 cells assessed as cell growth level at 10 nM after 48 hrs by sulforhodamine B assay; format: functional
SK-MEL-28 [3] = test: Cytotoxicity against human SK-MEL-28 cells assessed as cell growth level at 10 nM after 48 hrs by sulforhodamine B assay; format: functional
UACC-257 = test: Cytotoxicity against human UACC257 cells assessed as cell growth level at 10 nM after 48 hrs by sulforhodamine B assay; format: functional
CAKI-1 [4] = test: Cytotoxicity against human CAKI-1 cells assessed as cell growth level at 10 nM after 48 hrs by sulforhodamine B assay; format: functional
SN12C = test: Cytotoxicity against human SN12C cells assessed as cell growth level at 10 nM after 48 hrs by sulforhodamine B assay; format: functional
HL-60(TB) [5] = test: Cytotoxicity against human HL-60(TB) cells assessed as cell growth level at 100 nM after 48 hrs by sulforhodamine B assay; format: functional
HOP-62 [6] = test: Cytotoxicity against human HOP62 cells assessed as cell growth level at 100 nM after 48 hrs by sulforhodamine B assay; format: functional
NCI-H322M [7] = test: Cytotoxicity against human NCI-H322M cells assessed as cell growth level at 100 nM after 48 hrs by sulforhodamine B assay; format: functional
HCT-116 [8] = test: Cytotoxicity against human HCT116 cells assessed as cell growth level at 100 nM after 48 hrs by sulforhodamine B assay; format: functional
HCT-15 = test: Cytotoxicity against human HCT15 cells assessed as cell growth level at 100 nM after 48 hrs by sulforhodamine B assay; format: functional
SK-MEL-5 = test: Cytotoxicity against human SK-MEL-5 cells assessed as cell growth level at 100 nM after 48 hrs by sulforhodamine B assay; format: functional
A498 = test: Cytotoxicity against human A498 cells assessed as cell growth level at 100 nM after 48 hrs by sulforhodamine B assay; format: functional
MOLT-4 = test: Cytotoxicity against human MOLT4 cells assessed as cell growth level at 10 uM after 48 hrs by sulforhodamine B assay; format: functional
SR = test: Cytotoxicity against human SR cells assessed as cell growth level at 10 uM after 48 hrs by sulforhodamine B assay; format: functional
NCI-H226 [9] = test: Cytotoxicity against human NCI-H226 cells assessed as cell growth level at 10 uM after 48 hrs by sulforhodamine B assay; format: functional
HL-60(TB) [10] = test: Cytotoxicity against human HL-60(TB) cells assessed as cell growth level at 1 uM after 48 hrs by sulforhodamine B assay; format: functional
LOX IMVI = test: Cytotoxicity against human LOXIMVI cells assessed as cell growth level at 10 uM after 48 hrs by sulforhodamine B assay; format: functional
Malme-3M = test: Cytotoxicity against human MALME-3M cells assessed as cell growth level at 10 uM after 48 hrs by sulforhodamine B assay; format: functional
SK-MEL-28 [11] = test: Cytotoxicity against human SK-MEL-28 cells assessed as cell growth level at 10 uM after 48 hrs by sulforhodamine B assay; format: functional
IGROV-1 = test: Cytotoxicity against human IGROV1 cells assessed as cell growth level at 10 uM after 48 hrs by sulforhodamine B assay; format: functional
OVCAR-3 = test: Cytotoxicity against human OVCAR3 cells assessed as cell growth level at 10 uM after 48 hrs by sulforhodamine B assay; format: functional
DU-145 = test: Cytotoxicity against human DU145 cells assessed as cell growth level at 10 uM after 48 hrs by sulforhodamine B assay; format: functional
A549 [12] = test: Cytotoxicity against human A549/ATCC cells assessed as cell growth level at 100 uM after 48 hrs by sulforhodamine B assay; format: functional
HOP-62 [13] = test: Cytotoxicity against human HOP62 cells assessed as cell growth level at 100 uM after 48 hrs by sulforhodamine B assay; format: functional
MDA-MB-231 = test: Cytotoxicity against human MDA-MB-231/ATCC cells assessed as cell growth level at 10 uM after 48 hrs by sulforhodamine B assay; format: functional
A549 [14] = test: Cytotoxicity against human A549/ATCC cells after 48 hrs by sulforhodamine B assay; format: functional; conditions: A549, 48 h
NCI-H226 [15] = test: Cytotoxicity against human NCI-H226 cells after 48 hrs by sulforhodamine B assay; format: functional; conditions: NCI-H226, 48 h
HT-29 = test: Cytotoxicity against human HT-29 cells after 48 hrs by sulforhodamine B assay; format: functional; conditions: HT-29, 48 h
U-251 = test: Cytotoxicity against human U251 cells after 48 hrs by sulforhodamine B assay; format: functional; conditions: U-251, 48 h
HCT-116 [16] = test: Cytotoxicity against human HCT116 cells assessed as cell growth level at 100 uM after 48 hrs by sulforhodamine B assay; format: functional
RXF 393 = test: Cytotoxicity against human RXF393 cells after 48 hrs by sulforhodamine B assay; format: functional; conditions: RXF 393, 48 h
Escherichia coli = test: Induction of DNA cleavage of Escherichia coli pUC18 plasmid DNA at 50 ug/ml after 2 hrs by agarose gel elctrophoresis method
HOP-62 [17] = test: Cytotoxicity against human HOP62 cells assessed as cell growth level at 10 nM after 48 hrs by sulforhodamine B assay; format: functional
[18] = read-out: LC50 (the source's name)
[19] = read-out: pLC50 (the source's name) (converted)

**Q.** Which results are given for `O=c1oc2ccccc2cc1-c1csc(N/N=C/c2c[nH]c3ccccc23)n1`?
**A.** Activity (M14): -77%; Activity (CAKI-1 [1]): -57%; Activity (PC-3): -20%; Activity (MCF7): -60%; Activity (NCI-H322M [2]): 103%; Activity (NCI-H460): 79%; Activity (NCI-H522): 105%; Activity (HCC 2998): 99%; Activity (SK-MEL-28 [3]): 94%; Activity (UACC-257): 96%; Activity (CAKI-1 [4]): 95%; Activity (SN12C): 88%; Activity (HL-60(TB) [5]): 97%; Activity (HOP-62 [6]): 110%; Activity (NCI-H322M [7]): 102%; Activity (HCT-116 [8]): 91%; Activity (HCT-15): 96%; Activity (SK-MEL-5): 88%; Activity (A498): 96%; Activity (MOLT-4): -32.32%; Activity (SR): -0.54%; Activity (NCI-H226 [9]): 42.82%; Activity (HL-60(TB) [10]): 26%; Activity (LOX IMVI): -52.19%; Activity (Malme-3M): -10.02%; Activity (SK-MEL-28 [11]): 54.83%; Activity (IGROV-1): 0.26%; Activity (OVCAR-3): -80.31%; Activity (DU-145): -36.09%; Activity (A549 [12]): -29%; Activity (HOP-62 [13]): -24%; Activity (MDA-MB-231): -37.04%; GI50 (A549 [14]; read-out: GI50): 1.54 µM; CC50 (A549 [14]; [18]): > 100 µM; TGI (A549 [14]; read-out: TGI): 5.3 µM; GI50 (A549 [14]; read-out: pGI50 (converted)): 1.55 µM; CC50 (A549 [14]; [19]): > 100 µM; TGI (A549 [14]; read-out: pTGI): 5.25 µM; GI50 (NCI-H226 [15]; read-out: GI50): 2.38 µM; CC50 (NCI-H226 [15]; [18]): > 100 µM; TGI (NCI-H226 [15]; read-out: TGI): 7.7 µM; GI50 (NCI-H226 [15]; read-out: pGI50 (converted)): 2.4 µM; CC50 (NCI-H226 [15]; [19]): > 100 µM; TGI (NCI-H226 [15]; read-out: pTGI (converted)): 7.76 µM; GI50 (HT-29; read-out: GI50): 2.01 µM; CC50 (HT-29; [18]): > 100 µM; TGI (HT-29; read-out: TGI): 5.55 µM; GI50 (HT-29; read-out: pGI50 (converted)): 2 µM; CC50 (HT-29; [19]): > 100 µM; TGI (HT-29; read-out: pTGI (converted)): 5.5 µM; GI50 (U-251; read-out: GI50): 1.75 µM; CC50 (U-251; [18]): 77.7 µM; TGI (U-251; read-out: TGI): 5.6 µM; GI50 (U-251; read-out: pGI50 (converted)): 1.74 µM; CC50 (U-251; [19]): 77.6 µM; TGI (U-251; read-out: pTGI (converted)): 5.62 µM; Activity (HCT-116 [16]): -66%; GI50 (RXF 393; read-out: GI50): 1.97 µM; CC50 (RXF 393; [18]): 33.9 µM; TGI (RXF 393; read-out: TGI): 4.77 µM; GI50 (RXF 393; read-out: pGI50 (converted)): 1.95 µM; CC50 (RXF 393; [19]): 33.9 µM; TGI (RXF 393; read-out: pTGI (converted)): 4.79 µM; Activity (Escherichia coli): Active; Activity (HOP-62 [17]): 105%
